The text below walks through data of US11739098B2 (BRISTOL-MYERS SQUIBB COMPANY, priority 2017, dated 2023).

Common to all, as to assay type: cell-based
Experiment [1] has as its target T1, human TLR9 (Homo sapiens, UniProt Q9NR96).
T1 construct: host or cells: HEK-Blue cells (HEK293-derived reporter line)
T1 sequence (Q9NR96 26-1032): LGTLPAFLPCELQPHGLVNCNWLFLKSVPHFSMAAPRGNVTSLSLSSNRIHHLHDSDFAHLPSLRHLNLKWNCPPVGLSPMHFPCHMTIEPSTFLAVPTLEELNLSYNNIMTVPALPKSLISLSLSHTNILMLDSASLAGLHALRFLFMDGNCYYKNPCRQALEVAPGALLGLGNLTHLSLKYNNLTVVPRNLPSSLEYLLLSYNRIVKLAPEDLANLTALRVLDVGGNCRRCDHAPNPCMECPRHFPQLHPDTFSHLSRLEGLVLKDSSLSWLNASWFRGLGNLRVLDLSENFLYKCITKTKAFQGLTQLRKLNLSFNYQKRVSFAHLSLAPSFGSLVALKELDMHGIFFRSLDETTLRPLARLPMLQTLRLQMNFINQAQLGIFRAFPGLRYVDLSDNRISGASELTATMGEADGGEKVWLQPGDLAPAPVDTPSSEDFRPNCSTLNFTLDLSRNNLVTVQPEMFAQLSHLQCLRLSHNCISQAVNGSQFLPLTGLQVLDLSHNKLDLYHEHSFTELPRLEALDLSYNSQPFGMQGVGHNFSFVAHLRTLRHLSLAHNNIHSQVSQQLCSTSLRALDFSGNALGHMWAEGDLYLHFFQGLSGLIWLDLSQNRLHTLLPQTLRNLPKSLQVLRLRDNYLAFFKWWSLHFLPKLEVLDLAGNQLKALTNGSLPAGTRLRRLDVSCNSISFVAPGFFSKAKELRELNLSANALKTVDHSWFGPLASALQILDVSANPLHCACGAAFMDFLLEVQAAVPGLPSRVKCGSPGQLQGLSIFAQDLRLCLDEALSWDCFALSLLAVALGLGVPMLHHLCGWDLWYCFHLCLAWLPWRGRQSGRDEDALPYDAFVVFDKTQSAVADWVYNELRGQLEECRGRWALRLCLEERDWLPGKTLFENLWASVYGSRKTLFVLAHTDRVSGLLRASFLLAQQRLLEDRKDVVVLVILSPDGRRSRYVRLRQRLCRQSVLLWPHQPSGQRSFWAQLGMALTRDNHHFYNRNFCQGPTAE
Briefly: TLR9 inhibition reporter assay (HEK-Blue cells, SEAP reporter, ODN2006 stimulation). The conditions noted are these: HEK-Blue cells overexpressing human TLR9, SEAP reporter, ODN2006 5 nM. The method, boiled down:
(§1)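 HEK-Blue cells overexpressing the receptor, with NF-κB/AP-1-driven SEAP, were pre-treated 30 min at room temperature with compound (0.05 nM–50 μM), then stimulated with gardiquimod 7.5 μM (TLR7), R848 15.9 μM (TLR8) or ODN2006 5 nM (TLR9). SEAP was read after 22 h at 37 °C as percent inhibition.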

Experiment [2] deals with T2, human TLR8 (Homo sapiens, UniProt Q9NR97).
T2 construct: host or cells: HEK-Blue cells (HEK293-derived reporter line)
T2 sequence (Q9NR97 27-1041): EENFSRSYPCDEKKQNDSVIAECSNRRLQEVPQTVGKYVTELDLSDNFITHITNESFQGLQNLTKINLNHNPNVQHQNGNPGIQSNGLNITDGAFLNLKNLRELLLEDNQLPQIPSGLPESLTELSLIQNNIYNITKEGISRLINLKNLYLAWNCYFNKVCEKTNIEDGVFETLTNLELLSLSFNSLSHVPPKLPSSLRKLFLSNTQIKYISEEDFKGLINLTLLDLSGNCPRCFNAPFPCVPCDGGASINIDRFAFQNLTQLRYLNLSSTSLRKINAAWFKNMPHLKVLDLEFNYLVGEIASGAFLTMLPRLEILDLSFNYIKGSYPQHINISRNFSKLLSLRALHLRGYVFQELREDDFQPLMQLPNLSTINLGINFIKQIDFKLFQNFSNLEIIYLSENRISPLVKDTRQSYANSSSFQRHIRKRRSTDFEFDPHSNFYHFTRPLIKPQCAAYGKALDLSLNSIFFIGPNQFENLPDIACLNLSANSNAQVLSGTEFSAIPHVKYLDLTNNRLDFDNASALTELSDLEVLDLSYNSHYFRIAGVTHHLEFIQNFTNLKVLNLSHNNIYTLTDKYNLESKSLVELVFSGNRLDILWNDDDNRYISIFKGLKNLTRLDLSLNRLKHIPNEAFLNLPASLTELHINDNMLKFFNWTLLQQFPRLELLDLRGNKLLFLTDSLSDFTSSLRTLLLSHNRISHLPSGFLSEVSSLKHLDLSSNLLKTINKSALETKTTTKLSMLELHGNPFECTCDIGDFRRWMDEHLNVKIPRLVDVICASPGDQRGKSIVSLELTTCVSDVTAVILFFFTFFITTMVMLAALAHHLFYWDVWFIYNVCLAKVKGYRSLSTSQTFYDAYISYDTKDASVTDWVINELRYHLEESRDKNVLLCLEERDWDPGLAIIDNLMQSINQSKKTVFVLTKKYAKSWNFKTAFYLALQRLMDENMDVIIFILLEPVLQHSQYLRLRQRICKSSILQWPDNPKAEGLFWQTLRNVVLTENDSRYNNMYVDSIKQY
Briefly: TLR8 inhibition reporter assay (HEK-Blue cells, SEAP reporter, R848 stimulation). To be noted: HEK-Blue cells overexpressing human TLR8, SEAP reporter, R848 15.9 μM. The method, boiled down: as §1

In experiment [3] the target is T3, human TLR7 (Homo sapiens, UniProt Q9NYK1).
T3 construct: host or cells: HEK-Blue cells (HEK293-derived reporter line)
T3 sequence (Q9NYK1 27-1049): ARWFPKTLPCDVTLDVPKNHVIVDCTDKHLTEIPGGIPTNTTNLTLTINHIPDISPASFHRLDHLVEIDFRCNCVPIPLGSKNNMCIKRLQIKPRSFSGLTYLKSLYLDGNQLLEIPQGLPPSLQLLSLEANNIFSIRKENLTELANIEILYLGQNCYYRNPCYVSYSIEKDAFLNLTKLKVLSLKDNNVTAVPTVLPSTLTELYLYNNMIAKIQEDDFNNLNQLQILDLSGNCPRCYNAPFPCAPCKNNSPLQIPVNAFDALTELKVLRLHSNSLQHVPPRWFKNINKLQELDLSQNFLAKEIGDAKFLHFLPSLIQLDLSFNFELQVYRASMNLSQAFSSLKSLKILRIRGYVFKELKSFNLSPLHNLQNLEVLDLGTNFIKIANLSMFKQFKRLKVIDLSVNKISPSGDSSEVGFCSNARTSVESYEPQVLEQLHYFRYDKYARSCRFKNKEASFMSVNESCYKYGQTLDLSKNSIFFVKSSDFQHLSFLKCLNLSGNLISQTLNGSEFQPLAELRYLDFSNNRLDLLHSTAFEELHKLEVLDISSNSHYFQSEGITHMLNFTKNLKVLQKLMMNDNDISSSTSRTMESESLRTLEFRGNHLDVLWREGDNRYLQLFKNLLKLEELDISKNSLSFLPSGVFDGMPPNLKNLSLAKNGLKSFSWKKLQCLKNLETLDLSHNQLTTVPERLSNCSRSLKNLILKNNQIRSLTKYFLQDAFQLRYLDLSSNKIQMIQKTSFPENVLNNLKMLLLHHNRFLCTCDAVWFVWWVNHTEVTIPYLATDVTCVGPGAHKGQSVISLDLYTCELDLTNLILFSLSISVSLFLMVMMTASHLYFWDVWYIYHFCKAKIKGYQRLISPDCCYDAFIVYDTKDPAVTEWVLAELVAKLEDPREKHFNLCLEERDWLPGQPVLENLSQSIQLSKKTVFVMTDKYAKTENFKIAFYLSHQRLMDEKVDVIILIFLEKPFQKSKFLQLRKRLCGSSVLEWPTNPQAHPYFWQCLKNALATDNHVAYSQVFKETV
Briefly: TLR7 inhibition reporter assay (HEK-Blue cells, SEAP reporter, gardiquimod stimulation). To be noted: HEK-Blue cells overexpressing human TLR7, SEAP reporter, gardiquimod 7.5 μM. A digest of the protocol: as §1

With `CNC(=O)c1cn2cc(-c3[nH]c4ccc(C5CCNCC5)cc4c3C(C)C)cc(C)c2n1` [Example 264, 6-(3-isopropyl-5-(piperidin-4-yl)-1H-indol-2-yl)-N,8-dimethylimidazo[1,2-a]pyridine-2-carboxamide], the values for the IC50 in experiment [1], in experiment [2] and in experiment [3] were 0.1 to 1 µM, under 0.1 µM and under 0.1 µM, respectively.
`Cc1cc(-c2[nH]c3ccc(C4CCNCC4)cc3c2C(C)C)cn2cc(C(=O)N(C)C)nc12` [Example 265, 6-(3-isopropyl-5-(piperidin-4-yl)-1H-indol-2-yl)-N,N,8-trimethylimidazo[1,2-a]pyridine-2-carboxamide]: the results for the IC50 in experiment [1], in experiment [2] and in experiment [3] were 1 to 50 µM, under 0.1 µM and under 0.1 µM, respectively.
Consider `CCN(C)C(=O)c1cn2cc(-c3[nH]c4ccc(C5CCNCC5)cc4c3C(C)C)cc(C)c2n1` [Example 266, N-ethyl-6-(3-isopropyl-5-(piperidin-4-yl)-1H-indol-2-yl)-N,8-dimethylimidazo[1,2-a]pyridine-2-carboxamide], for which the IC50 in experiment [1] is 1 to 50 µM; in experiment [2], under 0.1 µM; in experiment [3], under 0.1 µM.
In the case of `Cc1cc(-c2[nH]c3ccc(C4CCNCC4)cc3c2C(C)C)cn2cc(C(=O)NCCO)nc12` [Example 267, N-(2-hydroxyethyl)-6-(3-isopropyl-5-(piperidin-4-yl)-1H-indol-2-yl)-8-methylimidazo[1,2-a]pyridine-2-carboxamide], the figures for the IC50 in experiment [1], in experiment [2] and in experiment [3] were 1 to 50 µM, under 0.1 µM and under 0.1 µM, respectively.
Take `Cc1cc(-c2[nH]c3ccc(C4CCNCC4)cc3c2C(C)C)cn2cc(C(=O)N(C)CCO)nc12` [Example 268, N-(2-hydroxyethyl)-6-(3-isopropyl-5-(piperidin-4-yl)-1H-indol-2-yl)-N,8-dimethylimidazo[1,2-a]pyridine-2-carboxamide]: the half-inhibitory concentration (IC50) in experiment [1] was 1 to 50 µM; in experiment [2], under 0.1 µM; in experiment [3], under 0.1 µM.
Consider `COCCNC(=O)c1cn2cc(-c3[nH]c4ccc(C5CCNCC5)cc4c3C(C)C)cc(C)c2n1` [Example 269, 6-(3-isopropyl-5-(piperidin-4-yl)-1H-indol-2-yl)-N-(2-methoxyethyl)-8-methylimidazo[1,2-a]pyridine-2-carboxamide], for which the IC50 is 0.1 to 1 µM in experiment [1], under 0.1 µM in experiment [2] and under 0.1 µM in experiment [3].
As for `Cc1cc(-c2[nH]c3ccc(C4CCNCC4)cc3c2C(C)C)cn2cc(C(=O)NCC(C)(C)O)nc12` [Example 270, N-(2-hydroxy-2-methylpropyl)-6-(3-isopropyl-5-(piperidin-4-yl)-1H-indol-2-yl)-8-methylimidazo[1,2-a]pyridine-2-carboxamide], the results for the IC50 in experiment [1], in experiment [2] and in experiment [3] were 1 to 50 µM, 0.1 to 1 µM and 0.1 to 1 µM, respectively.
Turning to `Cc1c(-c2[nH]c3ccc(C4CCNCC4)cc3c2C(C)C)cn2ccnc2c1C` [Example 271, 6-(3-isopropyl-5-(piperidin-4-yl)-1H-indol-2-yl)-7,8-dimethylimidazo[1,2-a]pyridine], the IC50 in experiment [1] is 0.1 to 1 µM; in experiment [2] it was under 0.1 µM; in experiment [3], under 0.1 µM.
As for `CCc1c(C)c(-c2[nH]c3ccc(C4CCNCC4)cc3c2C(C)C)cn2ccnc12` [Example 272, 8-ethyl-6-(3-isopropyl-5-(piperidin-4-yl)-1H-5 indol-2-yl)-7-methylimidazo[1,2-a]pyridine], the IC50 in experiment [1] is 0.1 to 1 µM; in experiment [2], under 0.1 µM; in experiment [3] it was under 0.1 µM.
As to `Cc1c(-c2[nH]c3ccc(C4CCNCC4)cc3c2C(C)C)cn2ccnc2c1C(C)C` [Example 273, 8-isopropyl-6-(3-isopropyl-5-(piperidin-4-yl)-1H-indol-2-yl)-7-methylimidazo[1,2-a]pyridine], the IC50 was 0.1 to 1 µM in experiment [1], 0.1 to 1 µM in experiment [2] and under 0.1 µM in experiment [3].
For the molecule `CNC(=O)c1cnn2c(C)cc(-c3[nH]c4ccc(C5CCNCC5)cc4c3C(C)C)cc12` [Example 274, 5-(3-isopropyl-5-(piperidin-4-yl)-1H-indol-2-yl)-N,7-dimethylpyrazolo[1,5-a]pyridine-3-carboxamide], the IC50 in experiment [1] was 1 to 50 µM; in experiment [2], over 3.13 µM; in experiment [3], 0.1 to 1 µM.
As to `Cc1cc(-c2[nH]c3ccc(C4CCNCC4)cc3c2C(C)C)cc2c(C(=O)N(C)C)cnn12` [Example 275, 5-(3-isopropyl-5-(piperidin-4-yl)-1H-indol-2-yl)-N,N,7-trimethylpyrazolo[1,5-a]pyridine-3-carboxamide], the IC50 in experiment [1] was 1 to 50 µM; in experiment [2], over 3.13 µM; in experiment [3], 0.1 to 1 µM.
Turning to `CNC(=O)CN1CCC(c2ccc3[nH]c(-c4ccnc5[nH]ncc45)c(C(C)C)c3c2)CC1` [Example 276, 2-(4-(3-isopropyl-2-(1H-pyrazolo[3,4-b]pyridin-4-yl)-1H-indol-5-yl)piperidin-1-yl)-N-methylacetamide], the values for the IC50 in experiment [1], in experiment [2] and in experiment [3] were 1 to 50 µM, under 0.1 µM and under 0.1 µM, respectively.
